Experimental data as given in patent US9139574B2, “Tumor targeted drug combretastatin A4 derivative” (Nanjing Sanhome Pharmaceutical Co., Ltd., priority 2011, dated 2015).
Where two headings read alike, the source gives them in different places.

Experiments:
[1] = test system: K562; assay: MTT assay of anti-tumor activity, K562; assay type: cell-based; settings: Homo sapiens, K562, 72 h, K562 cells
Method: (§1) The cells were digested and counted. The cell suspension was prepared in a concentration of 5×10^4 cells/ml. 100 μL of the cell suspension per well was added into 96-well plates (5×10^3 cells per well). The 96-well plates were placed in a 5% CO2 incubator at 37° C. for 24 hours. The drugs were diluted with the complete medium to the desired concentrations. 100 μL of the corresponding drug-containing medium was added into each well. Negative control group, vehicle control group and positive control group were set. The 96-well plates were placed in 5% CO2 incubator at 37° C. for 72 hours. The 96-well plates were subjected to a MTT assay, and measured OD value at λ=490 nm. The measurement procedure comprises adding 20 μL MTT (5 mg/ml) for each well, incubating for 4 hours in an incubator, discarding the medium, dissolving by adding 150 μL DMSO into each well, mixing uniformly by rocking gently for 10 minutes on a shaker, reading OD value of each well in a microplate reader at λ=490 nm. The inhibition rate was calculated, the results were recorded, and the anti-tumor activity was assessed.

[2] = test system: MCF-7; assay: MTT assay of anti-tumor activity, MCF-7; assay type: cell-based; settings: Homo sapiens, MCF7, 72 h, MCF-7 cells
Method: as §1

[3] = test system: HCT-116; assay: MTT assay of anti-tumor activity, HCT-116; assay type: cell-based; settings: Homo sapiens, HCT-116, 72 h, HCT-116 cells
Method: as §1

[4] = test system: NCI-H460; assay: MTT assay of anti-tumor activity, NCI-H460; assay type: cell-based; settings: Homo sapiens, NCI-H460, 72 h, NCI-H460 cells
Method: as §1

[5] = test system: tubulin; assay: Inhibitory activity on tubulin polymerization (kit BK011P, Cytoskeleton); assay type: biochemical; settings: 37° C., 60 minutes, fluorescence, Vmax
Method: The compounds were formulated into six different concentrations (0.03, 0.3, 0.9, 3, 9, 30 μM). The tubulin polymerization assay kit (Cat. # BK011P, Cytoskeleton) was used for testing. The samples were incubated at 37° C. for 60 minutes, and then fluorescence was collected using Gemini EM Fluorescence Microplate Reader collected at 410-460 nm. Vmax was calculated using SOFTMAX® PRO microplate data acquisition & analysis software. The tubulin inhibition (IC50) of the compound was calculated using GRAPHPAD PRISM® v5.01 graphing and statistics software.

[6] = Pharmacokinetics of Compound C128 liposome in rats; assay type: in vivo; settings: C128 liposomes, 10 mg/kg tail vein injection, plasma, non-compartmental; for Vd: male, SD, 10 mg/kg
Method: C128 liposomes: (The liposome was prepared according to the conventional method in the pharmaceutical field, particle size 62.6 nm, polydispersity 0.532).
SD male rats, with average weight of 200 g.
Chromatographic conditions: LC-20A high performance liquid chromatography, SPD-20A variable wavelength UV detector (Shimadzu Corporation, Japan); C18 pre-column; mobile phase: methanol/water (65/35, v/v); flow rate 1 mL/min; detection wavelength 283 nm; column temperature 40° C.
The blood was collected from the orbital sinus of rats and centrifuged for 10 minutes at 3000 r/min, and the plasma was separated. 200 μL of the plasma was accurately sampled, and placed in 1.5 mL EP tube. 600 μL acetonitrile was added. The tube was vortexed for 3 minutes, and centrifuged for 10 minutes at 16000 r/min. 20 μL supernatant was taken for injection of HPLC determination. Chromatograms and peak area were recorded.
Blank plasma (280 μL) was accurately pipetted, and 20 μL of standard solutions of different concentrations of the drug was added to obtain the biological samples of different concentrations of the drug. The samples were treated and measured according to the aforementioned “Processing of the biological samples”. The chromatogram and the peak area were recorded. Linear regression was made by peak area A v.s concentration C (μg/mL) to obtain the standard working curve of Compound C128 in the biological samples.
Three male rats were used, and administered via tail vein injection at a dose of 10 mg/kg. The blood was taken via the orbital sinus after administration of 5 min, 15 min, 30 min, 1 h, 2 h, 4 h, 6 h, 8 h, 10 h, respectively. The samples were treated and measured according to the aforementioned “Processing of the biological samples”. The chromatogram and the peak area were recorded. The measured amount, namely, the drug concentration in plasma, was calculated by putting the peak area of the drug into the standard working curve equation.
The time curve of the drug in plasma was drawn—the area under the plasma drug concentration-time curve (AUC) was calculated by the Log trapezoidal method.

IC50 [1]: 1.9 nM | IC50 [2]: 1 nM | IC50 [3]: 110 nM | IC50 [4]: 92 nM | IC50 [5]: 590 nM | AUMC0-inf—obs ([6]; SD male rats): 7.569 μg/ml*h^2 | Lambda—z ([6]; SD male rats): 0.833 h⁻¹ | Vd ([6]; rat, iv, read-out: Vss—obs): 1.29 L/kg | Vd ([6]; rat, iv, read-out: Vz—obs): 1.57 L/kg | AUC(0-t) ([6]; rat, iv, SD male rats): 7280 ng·h/mL | C0 ([6]; rat, iv, SD male rats): 20400 ng/mL | Cmax ([6]; rat, iv, SD male rats): 14200 ng/mL | Tmax ([6]; rat, iv, SD male rats): 4.98 min | half-life ([6]; rat, iv, SD male rats): 50 min | AUC(0-inf) ([6]; rat, iv, SD male rats, read-out: AUC0-inf—obs): 7770 ng·h/mL | clearance ([6]; rat, iv, SD male rats, read-out: Cl—obs (converted)): 21.7 mL/min/kg | MRT inf ([6]; rat, iv, SD male rats, read-out: MRT0-inf—obs): 58.9 min | melting point: 127.1 to 128.9 °C
Compound: COc1cc(OC)cc(-c2nc[nH]c2-c2ccc(OC)c(F)c2)c1 [Compound C128, 4-(3,5-dimethoxyphenyl)-5-(3-fluoro-4-methoxyphenyl)imidazole]
